The source of these data is patent US12178871B2 (priority 2018, dated 2024).

For data set [1], the system named is influenza virus subtype A mice-lung adaptive strain FM1. The settings on record: mouse, in vivo.
For data set [2], the system named is mouse lung cancer LL2 cell. Put plainly: LL2 lung cancer tumor-bearing mouse model. It counts as in vivo. Conditions: cisplatin 5 mg/kg, tail vein injection once a week. From the text: The tumor cells in this model grew rapidly, with tumor volume of 2201.9 mm^3±68.01 mm^3 on the 14th day after the inoculation and the experiment was over. […] As explanation, the cisplatin group is more likely to show efficacy in this model with very rapid cell division.

For data set [3] the following is noted: in vivo; cited from earlier work.

As for `NC(=O)c1ncn([C@@H]2O[C@H](CO)[C@@H](O)[C@H]2O)n1` [Ribavirin], the “X^2” value in data set [1] was 1.64.

Consider `N.N.[Cl][Pt][Cl]` [cisplatin], for which, in data set [2], the “T/Cb (%)” value came out at 28.9% and the “TV at day 14” value is given as 637.79 ± 62.87 mm^3.

With “polyinosinic-polycytidylic acid with poly-L-lysine and carboxymethyl cellulose [PICLC]”, in data set [3], the fever is 100%, the hypotension was 50% and the myalgia was 50%.
